Results taken from US20180230160A1, “2-AMINO-7A-PHENYL-3,4,4A,5,7,7A-HEXAHYDROFURO[3,4-B]PYRIDINES AS BACE1 INHIBITORS” (H. Lundbeck A/S, priority 2015, published 2018).
Where two headings read alike, the source gives them in different places.

Key:
[1] = test system: Aβ40 peptide; assay: Assessment of Aβ peptide levels in rat brain and plasma following BACE1 inhibition (Aβ40 ELISA); type: in vivo; conditions: 3 hours post dose, vs vehicle
Experimental: Assessment of Aβ Peptide Levels in Rat Brain and Plasma Following BACE1 Inhibition. Animals.
(§1) Young adult Male Sprague Dawley rats of approximately 250 g weight were purchased from Charles River and received 0-30 mg/kg of vehicle (10% HP betaCD+1M MeSO4, pH 2.5) or test compounds (dissolved in vehicle) only by oral gavage (p.o). The compounds are dosed at a volume of 5 ml/kg. Cohorts of 5-10 animals were established for each treatment condition.
(§2) At T=180 minutes after initial dosing the animals were stunned and decapitated with a guillotine. Trunk-blood was sampled in EDTA coated tubes after decapitation of the animal. The blood was centrifuged at 2200G at 4° C. for 15 minutes and the plasma was collected and frozen at −80° C. The blood was aliquoted for Aβ ELISA and DMPK analysis. Immediately following sacrifice, the brain was extracted and split into 2 halves. The right hemibrains were snap frozen on dry ice and stored at −80° C. The left half was dissected; with the front forebrain taken for Aβ ELISA and the remainder used for DMPK analysis. These samples were also snap frozen on dry ice and stored at −80° C. until use for analysis.
The cortex samples were thawed slightly on wet ice before they were homogenized with a small volume dispersing instrument (T10 basic ULTRA-TURRAX®) which was set at speed 5 for approximately 5-7 sec. The tissue was processed in a 10 times volume of the weight, for example 100 mg of tissue was homogenized in 1000 μL of Homogenization buffer. Homogenization buffer: 50 ml Milli Q water+50 nM NaCl+0.2% Diethylamin (DEA)+1 tablet of Complete Protease inhibitor cocktail+1 nM 4-(2-aminoethyl) benzenesulfonyl fluoride hydrochloride irreversible serine protease inhibitor (AEBSF).
After homogenization 450 μL aliquots of the samples are collected into a 1.5 ml Eppendorf tube and placed on wet ice, 0.5% NP-40 (50 ul) was added to all samples and then they were incubated on ice for 30 min. After which all samples were sonicated using an Ultrasonic homogenizer with 20 kHz homogeneous sound (SONOPLUS HD2070, Bandelin Electronic) 10 pulse set at 12-13% power to extract all the Aβ species. The samples were then centrifuged (Ole Dich 157 MPRF Micro centrifuge) at 20000G for 20 minutes at 4° C. After centrifugation 285 μL of the supernatant was pipetted into 600 μL microtubes tubes and neutralized with 15 μL of 1M Tris-HCL buffer.
WAKO 294-62501 Human/Rat Abeta amyloid (40) kit was used for all ELISA analyses. 30 μL plasma samples or 30 μL of the cortex supernatants generated as described above were placed in 600 μL microtubes tubes on wet ice. To this 30 μL of 8M urea (AppliChem A1049, 9025) was added to generate a 2-fold dilution. Both plasma and cortex supernatants were incubated on ice for 30 min. Standard rows were prepared from the standard peptide stock provided in the kit and standard diluent containing 1.6M urea (200 μL 8M urea+800 μL of standard diluent) and 0.8M urea (400 μL 8M Urea+3600 μL Standard diluent). A serial 2-fold dilution of Aβ40 from 100 pmol/ml to 0 pmol/L was prepared for the assay.
After incubation with urea, all samples were further diluted by addition of 5 times standard diluent from the Kit. This was done by adding 240 μL Standard Diluent to 60 μL sample/urea mixture, which was then mixed well. 100 μL of each diluted sample was pipetted into designated wells of the ELISA plate in duplicates. The plate was then covered and incubated overnight at 4° C. The following day, the ELISA kit was brought to room temperature before use. The incubated plate was washed 5 times with the 20× washing solution diluted in Milli Q water. 100 μL HRP-conjugate was applied to each well, and the plate was covered and incubates at 4° C. for 1 hr. The wash was repeated again for 5 times. 100 μL 3,3′,5,5′-Tetramethylbenzidine (TMB) solution was applied to each well and the plate was covered and incubated in the dark at room temperature for 30 minutes. […]

[2] = Compound exposure in rat brain and plasma after oral dosing (DMPK analysis); type: in vivo; conditions: male, Sprague Dawley, 3 hours post dose; for concentration at 3 h: read-out: Exp (exposure); for Kp at 3 h: brain/plasma, read-out: Brain/Plasma ratio
Experimental: as §1, §2
The results of the administration of representative Compounds of Examples 1, 2, 5, […], of brain and plasma samples collected at 3 hours post dose and then following exposures, as described above, are tabulated below.

[3] = target: human BACE1 (Homo sapiens, UniProt P56817); assay: BACE1 binding assay (SPA-based radioligand binding); set-up: biotin (biotinylated form); made in house; host or cells: Freestyle HEK293 cells; conditions: pH 4.5, 10 nM radioligand, Ki=IC50/(1+L/Kd)
Experimental: The binding assay was performed as SPA-based assay using a biotinylated form of human BACE1 recombinantly expressed and subsequently purified from Freestyle HEK293 cells. The binding assay was run in a 50 mM sodium acetate buffer, pH 4.5 containing 50 mM NaCl and 0.03% Tween-20 in white clear bottom 384 plates (Corning #3653). 10 nM (final concentration) radioligand ([^3H]—N-((1S,2R)-1-benzyl-3-cyclopropylamino-2-hydroxy-propyl)-5-(methanesulfonyl-methyl-amino)-N—((R)-1-phenyl-ethyl)-isophthalamide) (TRQ11569 purchased from GE Healthcare) was mixed with test compound at a given concentration, 6 nM (final concentration) human BACE1 and 25 μg Streptavidin coated PVT core SPA beads (RPNQ0007, GE Healthcare Life Sciences) in a total volume of 40 μl. Several concentrations of each test compound were tested in the assay for […] determination. The plates were incubated for one hour at room temperature and counted in a Wallac Trilux counter. Total and non-specific binding were determined using buffer and 1 μM (final concentration) of the high affinity BACE1 reference inhibitor (S)-6-[3-chloro-5-(5-prop-1-ynyl-pyridin-3-yl)-thiophen-2-yl]-2-imino-3,6-dimethyl-tetrahydro-pyrimidin-4-one, respectively. For each test compound, a 1050 value (the concentration mediating 50% inhibition of the specific binding of the radioligand) was determined from concentration-response curve and used to calculate the Ki from the equation Ki=IC50/(1+L/Kd), where L and Kd are the final concentration of the radioligand used in the assay and the dissociation constant of the radioligand, respectively. The Kd of the radioligand was determined from saturation binding experiments.

[4] = test system: P-gp (MDR1); assay: MDCK-MDR1 assay (permeability, efflux ratio); type: in vitro ADME; conditions: dog, Papp BA/Papp AB, 60-minute incubation
Experimental: The permeability of the test compounds was assessed in MDCK-MDR1 cells that were cultured to confluency (4-6 days) in a 96 transwell plate. Test compounds were diluted with the transport buffer (HBSS+1% BSA) to a concentration of 0.5 μM and applied to the apical or basolateral side of the cell monolayer. Permeation of the test compounds from A to B direction or B to A direction was determined in triplicate over a 60-minute incubation time at 37° C. and 5% CO2 with a relative humidity of 95%. Test compounds were quantified by LC-MS/MS analysis based on the peaks area ratios of analyte/IS in both the receiver and donor wells of the transwell plate. The apparent permeability coefficient Papp (cm/s) was calculated using the equation: […]
Where dCr/dt is the cumulative concentration of compound in the receiver chamber as a function of time (μM/s); Vr is the solution volume in the receiver chamber (0.05 mL on the apical side; 0.25 mL on the basolateral side); A is the surface area for the transport, i.e. 0.0804 cm^2 for the area of the monolayer; CO is the initial concentration in the donor chamber (μM).

Chain of human BACE1 (P56817 46-501): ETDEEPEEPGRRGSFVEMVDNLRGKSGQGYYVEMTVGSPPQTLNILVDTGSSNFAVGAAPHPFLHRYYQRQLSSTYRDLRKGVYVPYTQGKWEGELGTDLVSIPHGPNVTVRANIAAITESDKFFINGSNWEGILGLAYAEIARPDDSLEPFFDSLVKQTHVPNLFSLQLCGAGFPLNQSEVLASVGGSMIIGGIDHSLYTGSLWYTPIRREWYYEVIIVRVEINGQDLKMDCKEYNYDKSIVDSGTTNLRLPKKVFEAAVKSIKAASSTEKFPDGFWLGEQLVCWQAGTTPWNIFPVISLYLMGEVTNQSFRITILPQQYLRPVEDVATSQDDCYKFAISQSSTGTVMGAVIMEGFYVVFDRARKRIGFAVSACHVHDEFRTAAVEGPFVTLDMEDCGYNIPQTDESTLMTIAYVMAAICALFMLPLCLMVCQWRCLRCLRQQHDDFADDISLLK

What does the source list for [2H]C([2H])([2H])Oc1ccc(C(=O)Nc2ccc(F)c([C@]34COC[C@@]3(F)C[C@](C)(F)C(N)=N4)c2)nc1 [Example 1, N-(3-((3S,4aR,7aS)-2-amino-3,4a-difluoro-3-methyl-3,4,4a,5-tetrahydrofuro[3,4-b]pyridin-7a-yl)-4-fluorophenyl)-5-(methoxy-d3)picolinamide]?
Aβ40 reduction ([1]; Brain, 10 mg/kg p.o.): 34%; Aβ40 reduction ([1]; Brain, 30 mg/kg p.o.): 54%; Aβ40 reduction ([1]; Plasma, 10 mg/kg p.o.): 38%; Aβ40 reduction ([1]; Plasma, 30 mg/kg p.o.): 52%; concentration at 3 h ([2]; Brain, 10 mg/kg p.o.): 194 ng/g; concentration at 3 h ([2]; Brain, 30 mg/kg p.o.): 951 ng/g; concentration at 3 h ([2]; Plasma, 10 mg/kg p.o.): 184 ng/g; concentration at 3 h ([2]; Plasma, 30 mg/kg p.o.): 634 ng/g; Kp at 3 h ([2]; 10 mg/kg p.o.): 1.06; Kp at 3 h ([2]; 30 mg/kg p.o.): 1.5

Which Ki [3] does the source give for C[C@]1(F)C[C@]2(F)COC[C@]2(c2cc(NC(=O)c3cnc(C(F)F)cn3)ccc2F)N=C1N [Example 3, N-(3-((3S,4aR,7aS)-2-amino-3,4a-difluoro-3-methyl-3,4,4a,5,7,7a-hexahydrofuro[3,4-b]pyridin-7a-yl)-4-fluorophenyl)-5-(difluoromethyl)pyrazine-2-carboxamide] here?
The Ki was 48 nM.

What about the efflux ratio at 60 min, 0.5 μM [4] of the same molecule?
The efflux ratio at 60 min, 0.5 μM was 0.96.

For C[C@]1(F)C[C@]2(F)COC[C@]2(c2cc(NC(=O)c3ccc(Cl)cn3)ccc2F)N=C1N [Example 6, N-(3-((3S,4aR,7aS)-2-amino-3,4a-difluoro-3-methyl-3,4,4a,5,7,7a-hexahydrofuro[3,4-b]pyridin-7a-yl)-4-fluorophenyl)-5-chloropicolinamide], which Ki [3] is on record?
Its Ki is 6.4 nM.

And the efflux ratio at 60 min, 0.5 μM [4]?
Its efflux ratio at 60 min, 0.5 μM is 1.01.

What does the source list for C[C@@]1(F)C[C@]2(F)COC[C@]2(c2cc(NC(=O)c3cnc(C(F)F)cn3)ccc2F)N=C1N [Example 8, N-(3-((3R,4aR,7aS)-2-amino-3,4a-difluoro-3-methyl-3,4,4a,5,7,7a-hexahydrofuro[3,4-b]pyridin-7a-yl)-4-fluorophenyl)-5-(difluoromethyl)pyrazine-2-carboxamide]?
Ki [3]: 14 nM; efflux ratio at 60 min, 0.5 μM [4]: 1.23

What does the source list for Cc1csc(C(=O)Nc2ccc(F)c([C@]34COC[C@@]3(F)C[C@@](C)(F)C(N)=N4)c2)n1 [Example 9, N-(3-((3R,4aR,7aS)-2-amino-3,4a-difluoro-3-methyl-3,4,4a,5,7,7a-hexahydrofuro[3,4-b]pyridin-7a-yl)-4-fluorophenyl)-4-methylthiazole-2-carboxamide]?
Ki [3]: 23 nM; efflux ratio at 60 min, 0.5 μM [4]: 1.33

For Cc1nc(C(=O)Nc2ccc(F)c([C@]34COC[C@@]3(F)C[C@@](C)(F)C(N)=N4)c2)co1 [Example 10, N-(3-((3R,4aR,7aS)-2-amino-3,4a-difluoro-3-methyl-3,4,4a,5,7,7a-hexahydrofuro[3,4-b]pyridin-7a-yl)-4-fluorophenyl)-2-methyloxazole-4-carboxamide], which Ki [3] is on record?
The Ki was 22 nM.

And the efflux ratio at 60 min, 0.5 μM [4]?
Its efflux ratio at 60 min, 0.5 μM is 2.46.

Which Ki [3] does the source give for [2H]C([2H])([2H])Oc1cnc(C(=O)Nc2ccc(F)c([C@]34COC[C@@]3(F)C[C@@](C)(F)C(N)=N4)c2)cn1 [Example 13, N-(3-((3R,4aR,7aS)-2-amino-3,4a-difluoro-3-methyl-3,4,4a,5-tetrahydrofuro[3,4-b]pyridin-7a-yl)-4-fluorophenyl)-5-(methoxy-d3)pyrazine-2-carboxamide] here?
Its Ki is 29 nM.

For C[C@@]1(F)C[C@]2(F)COC[C@]2(c2cc(NC(=O)c3ccc(Cl)cn3)ccc2F)N=C1N [Example 14, N-(3-((3R,4aR,7aS)-2-amino-3,4a-difluoro-3-methyl-3,4,4a,5,7,7a-hexahydrofuro[3,4-b]pyridin-7a-yl)-4-fluorophenyl)-5-chloropicolinamide], which Ki [3] is on record?
The Ki was 9.3 nM.

And the efflux ratio at 60 min, 0.5 μM [4]?
Its efflux ratio at 60 min, 0.5 μM is 0.91.

Which Ki [3] does the source give for NC1=N[C@@]2(c3cc(NC(=O)c4ccc(F)cn4)cc(F)c3F)COC[C@H]2C[C@]1(F)CF [Example 19, N-[3-[(3R,4aS,7aS)-2-amino-3-fluoro-3-(fluoromethyl)-4,4a,5,7-tetrahydrofuro[3,4-b]pyridin-7a-yl]-4,5-difluoro-phenyl]-5-fluoro-pyridine-2-carboxamide] here?
Its Ki is 340 nM.

For COc1ccc(C(=O)Nc2cc(F)c(F)c([C@]34COC[C@H]3C[C@@](F)(CF)C(N)=N4)c2)nc1 [Example 25, N-[3-[(3S,4aS,7aS)-2-amino-3-fluoro-3-(fluoromethyl)-4,4a,5,7-tetrahydrofuro[3,4-b]pyridin-7a-yl]-4,5-difluoro-phenyl]-5-methoxy-pyridine-2-carboxamide], which Ki [3] is on record?
The Ki was 230 nM.
